The results in this text go back to patent US9028845B2, “Chimeric immunomodulatory compounds and methods of using the same-IV” (Dynavax Technologies Corporation, priority 2001, dated 2015).

Strand notation (5' to 3'): a small letter for the sugar, then the base; units joined by * are phosphorothioate-linked, units joined directly phosphodiester-linked; [ ] holds rarer units or linkages, { } end groups; capitals alone tell only the bases. d = 2'-deoxy (DNA)

This data set has as its system mouse splenocytes. Briefly: Mouse splenocyte cytokine secretion (IL-6, IL-12, IFN by ELISA). The class given is cell-based, BALB/c mice. Further details: IFN: unit not given beside the values. To be noted: 24 h. Here is the method:
Polynucleotides and chimeric compounds were tested for immunostimulatory activity on mouse splenocytes. Immunostimulation was assessed by measurement of cytokine secretion into the culture media. Cytokine levels in the culture supernatant were determined by enzyme-linked immunosorbent assay (ELISA) tests.
Cells were isolated and prepared using standard techniques. Spleens of 8 to 20 week-old BALB/c mice were harvested and the splenocytes isolated using standard teasing and treatment with ACK lysing buffer from BioWhittaker, Inc. Four spleens were pooled in this experiment. Isolated cells were washed in RPMI 1640 media supplemented with 2% heat-inactivated fetal calf serum (FCS), 50 μM 2-mercaptoethanol, 1% penicillin-streptomycin, and 2 mM L-glutamine and resuspended at approximately […] in 10% FCS/RPMI (RPMI 1640 media with 10% heat-inactivated FCS, 50 μM 2-mercaptoethanol, 1% penicillin-streptomycin, and 2 mM L-glutamine).
Cell cultures were set up in triplicate with approximately 7×10^5 cells/well in a 96-well flat microtiter plate in 100 μl 10% FCS/RPMI with the cells allowed to rest for at lest 1 hour after plating. The indicated test compounds were incubated (at the indicated concentrations) for 24 hours at 37° C. Cell supernatants were harvested and frozen at −80° C. Cytokine production by the cells was determined by ELISAs, as shown in 19.
(In general: ELISA stands for enzyme-linked immunosorbent assay.)

Where the note is “dose 1.0 μg/ml”, “5′-TGACTGTGAACCTTAGAGATGA-3′ (SEQ ID NO: 3) (dT*dG*dA*dC*dT*dG*dT*dG*dA*dA*dC*dC*dT*dT*dA*dG*dA*dG*dA*dT*dG*dA) [Compound P-7, negative control, reference compound]” yielded an IFN of 30, an IL-6 of 7 and an IL-12 of 143. For the setting “dose 5.0 μg/ml”, this substance yielded an IFN of 23, an IL-6 of 9 and an IL-12 of 177.
